Here are results for 20 compounds from patent US11866450B2, “Modulators of Cystic Fibrosis Transmembrane Conductance regulator, pharmaceutical compositions, methods of treatment, and process for making the modulators” (priority 2018, dated 2024).

What is called EC50 is the midpoint of the concentration-response curve.

This test deals with CFTR-mediated chloride transport (Homo sapiens, UniProt P13569). It is filed as cell-based. The settings on record: enteroid cells incubated with test compound 18-24 hours, acute 10 μM forskolin and 300 nM Compound III; for Max. Activity: % of chloride transport with 3 μM Compound A, 3 μM Compound II and 300 nM acute Compound III triple combination control. The method, boiled down:
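Human intestinal enteroid cells incubated with compound 18–24 h at 37° C., then membrane potential dye (FLIPR) read 15 min after chloride-free stimulation with 10 μM forskolin, 100 μM IBMX and 300 nM Compound III. AUC expressed as % of triple-combination control (3 μM Compound A, 3 μM Compound II, 300 nM Compound III).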

Chain of CFTR-mediated chloride transport (P13569 whole entry, looked up): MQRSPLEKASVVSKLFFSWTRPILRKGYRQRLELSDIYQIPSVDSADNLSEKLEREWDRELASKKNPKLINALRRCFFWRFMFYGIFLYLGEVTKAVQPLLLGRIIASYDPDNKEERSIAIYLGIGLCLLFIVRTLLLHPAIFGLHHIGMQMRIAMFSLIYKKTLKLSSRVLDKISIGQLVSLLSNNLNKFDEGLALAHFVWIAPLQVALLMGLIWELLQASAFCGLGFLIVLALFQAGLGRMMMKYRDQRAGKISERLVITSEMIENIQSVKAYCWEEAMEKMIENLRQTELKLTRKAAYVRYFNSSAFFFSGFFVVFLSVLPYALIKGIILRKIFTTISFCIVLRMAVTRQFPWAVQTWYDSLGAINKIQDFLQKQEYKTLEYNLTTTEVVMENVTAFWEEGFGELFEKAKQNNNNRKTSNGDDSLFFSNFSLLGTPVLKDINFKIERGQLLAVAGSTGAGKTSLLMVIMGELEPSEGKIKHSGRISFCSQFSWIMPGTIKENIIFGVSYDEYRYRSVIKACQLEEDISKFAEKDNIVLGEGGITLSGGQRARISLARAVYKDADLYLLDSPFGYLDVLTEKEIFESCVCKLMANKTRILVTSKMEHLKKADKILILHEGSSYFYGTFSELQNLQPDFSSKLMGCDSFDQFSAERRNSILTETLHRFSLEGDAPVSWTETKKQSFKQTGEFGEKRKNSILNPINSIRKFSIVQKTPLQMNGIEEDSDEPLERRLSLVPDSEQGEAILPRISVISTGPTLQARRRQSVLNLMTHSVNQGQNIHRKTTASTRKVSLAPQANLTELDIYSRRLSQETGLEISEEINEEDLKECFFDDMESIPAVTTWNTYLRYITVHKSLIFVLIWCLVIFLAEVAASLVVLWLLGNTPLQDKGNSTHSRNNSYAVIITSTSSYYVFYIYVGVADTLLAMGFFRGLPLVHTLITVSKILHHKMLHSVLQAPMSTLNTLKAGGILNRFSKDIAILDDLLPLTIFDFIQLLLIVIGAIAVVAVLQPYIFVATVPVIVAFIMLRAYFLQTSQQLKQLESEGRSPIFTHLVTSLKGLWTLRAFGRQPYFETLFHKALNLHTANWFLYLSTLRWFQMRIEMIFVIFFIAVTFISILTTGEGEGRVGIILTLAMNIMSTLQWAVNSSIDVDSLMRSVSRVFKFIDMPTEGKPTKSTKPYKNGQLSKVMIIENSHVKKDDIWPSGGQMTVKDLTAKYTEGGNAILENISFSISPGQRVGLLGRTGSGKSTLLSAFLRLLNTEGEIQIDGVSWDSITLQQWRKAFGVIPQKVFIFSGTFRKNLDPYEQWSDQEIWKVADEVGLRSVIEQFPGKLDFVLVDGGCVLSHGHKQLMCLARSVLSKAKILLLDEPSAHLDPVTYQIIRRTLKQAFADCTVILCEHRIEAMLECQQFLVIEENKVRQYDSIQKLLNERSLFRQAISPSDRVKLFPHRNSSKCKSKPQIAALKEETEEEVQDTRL

On to `CC1(C)C[C@H]2CCCNc3cccc(n3)S(=N)(=O)NC(=O)c3ccc(-n4ccc(OCCC5(C(F)(F)F)CC5)n4)nc3N1C2` (single isomer, unassigned) [Compound 266, 2-Imino-12,12-dimethyl-8-(3-{2-[1-(trifluoromethyl)cyclopropyl]ethoxy}-1H-pyrazol-1-yl)-2λ^6-thia-3,9,11,18,23-pentaazatetracyclo[17.3.1.111,14.05,10]tetracosa-1(23),5,7,9,19,21-hexaene-2,4-dione], for which the 50% effective concentration (EC50) was below 1000 nM and the “Max. Activity” value was “++ (++ is 30-60%)”.

With `CC1(C)C[C@H]2CCCNc3cccc(n3)S(=N)(=O)NC(=O)c3ccc(-n4ccc(OCCC5(C(F)(F)F)CC5)n4)nc3N1C2` (single isomer, unassigned) [Compound 267, 2-imino-12,12-dimethyl-8-(3-{2-[1-(trifluoromethyl)cyclopropyl]ethoxy}-1H-pyrazol-1-yl)-2λ^6-thia-3,9,11,18,23-pentaazatetracyclo[17.3.1.111,14.05,10]tetracosa-1(23),5,7,9,19,21-hexaene-2,4-dione], the EC50 is below 1000 nM and the “Max. Activity” value was “+++ (+++ is >60%)”.

Consider `CC1(C)C[C@H]2CCCNc3cccc(n3)S(=N)(=O)NC(=O)c3ccc(-n4ccc(OCCC5(C(F)(F)F)CC5)n4)nc3N1C2` (single isomer, unassigned) [Compound 271, 2-Imino-12,12-dimethyl-8-(3-{2-[1-(trifluoromethyl)cyclopropyl]ethoxy}-1H-pyrazol-1-yl)-2λ^6-thia-3,9,11,18,23-pentaazatetracyclo[17.3.1.111,14.05,10]tetracosa-1(23),5,7,9,19,21-hexaene-2,4-dione], for which the EC50 was below 1000 nM and the “Max. Activity” value is reported as “+++ (+++ is >60%)”.

Consider `CC1(C)C[C@H]2CCCNc3cccc(n3)S(=N)(=O)NC(=O)c3ccc(-n4ccc(OCCC5(C(F)(F)F)CC5)n4)nc3N1C2` (single isomer, unassigned) [Compound 272, 2-imino-12,12-dimethyl-8-(3-{2-[1-(trifluoromethyl)cyclopropyl]ethoxy}-1H-pyrazol-1-yl)-2λ^6-thia-3,9,11,18,23-pentaazatetracyclo[17.3.1.111,14.05,10]tetracosa-1(23),5,7,9,19,21-hexaene-2,4-dione], for which the half-maximal effective concentration (EC50) is above 3000 nM and the “Max. Activity” value is reported as “+ (+ is <30%)”.

Take `CC1(C)C[C@H]2CCCCn3ccc(n3)S(=O)(=O)NC(=O)c3ccc(-n4ccc(OCCCC5(C(F)(F)F)CC5)n4)nc3N1C2` (single isomer, unassigned) [Compound 276, 21,21-dimethyl-4-(3-{3-[1-(trifluoromethyl)cyclopropyl]propoxy}-1H-pyrazol-1-yl)-10λ^6-thia-1,3,9,14,23-pentaazatetracyclo[17.2.1.111,14.02,7]tricosa-2,4,6,11(23),12-pentaene-8,10,10-trione]: the concentration giving a half-maximal response (EC50) is below 1000 nM and the “Max. Activity” value was “++ (++ is 30-60%)”.

For the compound `CC1(C)C[C@H]2CCCCn3ccc(n3)S(=O)(=O)NC(=O)c3ccc(-n4ccc(OCCCC5(C(F)(F)F)CC5)n4)nc3N1C2` (single isomer, unassigned) [Compound 277, 21,21-dimethyl-4-(3-{3-[1-(trifluoromethyl)cyclopropyl]propoxy}-1H-pyrazol-1-yl)-10λ^6-thia-1,3,9,14,23-pentaazatetracyclo[17.2.1.111,14.02,7]tricosa-2,4,6,11(23),12-pentaene-8,10,10-trione], the EC50 is above 3000 nM and the “Max. Activity” value is “+ (+ is <30%)”.

Take `CC1(C)C[C@H]2CCn3ccc(n3)S(=O)(=O)NC(=O)c3ccc(-n4ccc(OCCCC5(C(F)(F)F)CC5)n4)nc3N1C2` (single isomer, unassigned) [Compound 278, 19,19-dimethyl-4-(3-{3-[1-(trifluoromethyl)cyclopropyl]propoxy}-1H-pyrazol-1-yl)-10λ^6-thia-1,3,9,14,21-pentaazatetracyclo[15.2.1.111,14.02,7]henicosa-2,4,6,11(21),12-pentaene-8,10,10-trione]: the EC50 is above 3000 nM and the “Max. Activity” value is listed as “+ (+ is <30%)”.

On to `CC1(C)C[C@H]2CCn3ccc(n3)S(=O)(=O)NC(=O)c3ccc(-n4ccc(OCCCC5(C(F)(F)F)CC5)n4)nc3N1C2` (single isomer, unassigned) [Compound 279, 19,19-dimethyl-4-(3-{3-[1-(trifluoromethyl)cyclopropyl]propoxy}-1H-pyrazol-1-yl)-10λ^6-thia-1,3,9,14,21-pentaazatetracyclo[15.2.1.111,14.02,7]henicosa-2,4,6,11(21),12-pentaene-8,10,10-trione], for which the EC50 was below 1000 nM and the “Max. Activity” value was “++ (++ is 30-60%)”.

In the case of `CC1(C)C[C@@H]2CCCNc3cccc(n3)S(=O)(=O)NC(=O)c3ccc(-n4ccc(OC[C@@H](O)CC5(C(F)(F)F)CC5)n4)nc3N1C2` (single isomer, unassigned) [Compound 283], the EC50 is below 1000 nM and the “Max. Activity” value is reported as “+++ (+++ is >60%)”.

As for `CC1(C)C[C@@H]2CCCNc3cccc(n3)S(=O)(=O)NC(=O)c3ccc(-n4ccc(OC[C@@H](O)CC5(C(F)(F)F)CC5)n4)nc3N1C2` (single isomer, unassigned) [Compound 284], the EC50 was below 1000 nM and the “Max. Activity” value is on record as “+++ (+++ is >60%)”.

Regarding `Cc1c2cnn1CCCC1CN(c3nc(-n4ccc(OCC(C)(C)C(F)(F)F)n4)ccc3C(=O)NS2(=O)=O)C(C)(C)C1` (single isomer, unassigned) [Compound 285, 20,20,22-trimethyl-4-[3-(3,3,3-trifluoro-2,2-dimethylpropoxy)-1H-pyrazol-1-yl]-10λ^6-thia-1,3,9,13,14-pentaazatetracyclo[16.2.1.111,14.02,7]docosa-2,4,6,11(22),12-pentaene-8,10,10-trione], the EC50 is below 1000 nM and the “Max. Activity” value is given as “+ (+ is <30%)”.

As to `Cc1c2cnn1CCCC1CN(c3nc(-n4ccc(OCC(C)(C)C(F)(F)F)n4)ccc3C(=O)NS2(=O)=O)C(C)(C)C1` (single isomer, unassigned) [Compound 286, 20,20,22-trimethyl-4-[3-(3,3,3-trifluoro-2,2-dimethylpropoxy)-1H-pyrazol-1-yl]-10λ^6-thia-1,3,9,13,14-pentaazatetracyclo[16.2.1.111,14.02,7]docosa-2,4,6,11(22),12-pentaene-8,10,10-trione], the 50% effective concentration (EC50) was below 1000 nM and the “Max. Activity” value is reported as “+ (+ is <30%)”.

For `Cc1c2cnn1CCCC1CN(c3nc(-n4ccc(OCC(C)(C)C(F)(F)F)n4)ccc3C(=O)NS2(=O)=O)C(C)(C)C1` (single isomer, unassigned) [Compound 288, 20,20,22-trimethyl-4-[3-(3,3,3-trifluoro-2,2-dimethylpropoxy)-1H-pyrazol-1-yl]-10λ^6-thia-1,3,9,13,14-pentaazatetracyclo[16.2.1.111,14.02,7]docosa-2,4,6,11(22),12-pentaene-8,10,10-trione], the EC50 lay within 1000 to 3000 nM and the “Max. Activity” value is listed as “+ (+ is <30%)”.

As for `Cc1c2cnn1CCCC1CN(c3nc(-n4ccc(OCC(C)(C)C(F)(F)F)n4)ccc3C(=O)NS2(=O)=O)C(C)(C)C1` (single isomer, unassigned) [Compound 289, 20,20,22-Trimethyl-4-[3-(3,3,3-trifluoro-2,2-dimethylpropoxy)-1H-pyrazol-1-yl]-10λ^6-thia-1,3,9,13,14-pentaazatetracyclo[16.2.1.111,14.02,7]docosa-2,4,6,11(22),12-pentaene-8,10,10-trione], the 50% effective concentration (EC50) was below 1000 nM and the “Max. Activity” value is listed as “++ (++ is 30-60%)”.

`Cc1nn2cc1S(=O)(=O)NC(=O)c1ccc(-n3ccc(OCC(C)(C)C(F)(F)F)n3)nc1N1C[C@H](CCC2)CC1(C)C` (single isomer, unassigned) [Compound 290, 12,20,20-trimethyl-4-[3-(3,3,3-trifluoro-2,2-dimethylpropoxy)-1H-pyrazol-1-yl]-10λ^6-thia-1,3,9,13,14-pentaazatetracyclo[16.2.1.111,14.02,7]docosa-2,4,6,11(22),12-pentaene-8,10,10-trione]: the EC50 is above 3000 nM and the “Max. Activity” value is “+ (+ is <30%)”.

With `Cc1nn2cc1S(=O)(=O)NC(=O)c1ccc(-n3ccc(OCC(C)(C)C(F)(F)F)n3)nc1N1C[C@H](CCC2)CC1(C)C` (single isomer, unassigned) [Compound 291, 12,20,20-trimethyl-4-[3-(3,3,3-trifluoro-2,2-dimethylpropoxy)-1H-pyrazol-1-yl]-10λ^6-thia-1,3,9,13,14-pentaazatetracyclo[16.2.1.111,14.02,7]docosa-2,4,6,11(22),12-pentaene-8,10,10-trione], the half-maximal effective concentration (EC50) was below 1000 nM and the “Max. Activity” value is “++ (++ is 30-60%)”.

`CC1(C)C[C@@H]2CCCNc3cccc(n3)S(=O)(=O)NC(=O)c3ccc(-n4ccc(OC[C@@H](O)C5C6(CC6)C56CC6)n4)nc3N1C2` (single isomer, unassigned) [Compound 293]: the EC50 is below 1000 nM and the “Max. Activity” value is given as “+++ (+++ is >60%)”.

For `CC1(C)C[C@@H]2CCCNc3cccc(n3)S(=O)(=O)NC(=O)c3ccc(-n4ccc(OC[C@@H](O)C5C6(CC6)C56CC6)n4)nc3N1C2` (single isomer, unassigned) [Compound 294], the EC50 was in the range of 1000 to 3000 nM and the “Max. Activity” value is on record as “+++ (+++ is >60%)”.

Take `CC1(C)C[C@@H]2CCCNc3cccc(n3)S(=O)(=O)NC(=O)c3ccc(-n4ccc(OCC[C@@H](O)C5(C(F)(F)F)CC5)n4)nc3N1C2` (single isomer, unassigned) [Compound 296]: the half-maximal effective concentration (EC50) was below 1000 nM and the “Max. Activity” value is “+++ (+++ is >60%)”.

In the case of `CC1(C)C[C@@H]2CCCNc3cccc(n3)S(=O)(=O)NC(=O)c3ccc(-n4ccc(OCC[C@@H](O)C5(C(F)(F)F)CC5)n4)nc3N1C2` (single isomer, unassigned) [Compound 297], the concentration giving a half-maximal response (EC50) is below 1000 nM and the “Max. Activity” value is “+++ (+++ is >60%)”.
